This is an account of results in patent publication US4443448A, “Indane derivatives, pharmaceutical compositions thereof and method of preparation” (priority 1980, dated 1984).

In general, LD50 refers to the dose expected to kill half of the subjects tested. Read a high LD50 as a less toxic substance. Usually IC50 stands for the midpoint of a concentration-inhibition curve. Read a high IC50 as weaker potency.

Data set [1] deals with methylphenidate. Nature of the data set: Methylphenidate antagonism in mice. In kind it is in vivo. Conditions: Mus musculus, ip, 2 h, read-out: MePh antag. ED50 2 hr i.p., mice, test substance i.p., 2 hr before methylphenidate 60 mg/kg s.c. In a few lines:
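Test substance given i.p. 2 or 24 h before methylphenidate 60 mg/kg s.c.; mice observed in pairs for 1 h on corrugated paper for biting. Three pairs per dose, scored as fraction of pairs not biting; ED50 in mg/kg.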

Data set [2] has as its system amphetamine. Nature of the data set: Amphetamine antagonism in rats. In kind it is in vivo. Conditions: Rattus norvegicus, po, rats, p.o., amphetamine 10 mg/kg base i.v.; read-out: Amphetamine antag. ED50 p.o. The procedure, abridged: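 Rats dosed p.o. with test substance, then 2 or 24 h later given amphetamine sulphate 13.6 mg/kg (10 mg/kg base) i.v.; five rats per dose. Stereotypy (head movements, compulsive gnawing) scored for 1 min at 55 and 65 min; fraction of rats without stereotypy used to derive ED50 in mg/kg.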

Data set [3] can be described thus: in vivo. More on the design: species or system rats. Conditions: for Ratio catalep./Amphet.: catalepsy ED50 / amphetamine antagonism ED50; for ED50: rat, in vivo, po, rats, p.o., strongest effect within first 6 hours, read-out: Catalep. (catalepsy wire mesh, rat, max, ED50). The procedure, abridged: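 Oral dosing at 4 fixed-scale levels, five animals per group. Rats were placed on a vertical 1 cm-mesh wire netting at 60, 120, 180, 240, 300 and 360 min post-dose. Immobility for 15 s scored cataleptic; sliding passively or climbing scored non-cataleptic.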

A short description of data set [4]: Mouse grid shock (analgesia). In kind it is in vivo. Conditions: mice, minimal effective dose, in mg/kg. The procedure, abridged: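 Mice (five per dose) on an electrified grid received 20 cycles/s, 5 msec square-wave pulses of rising current until they squeaked, giving the pain threshold in mA. Results are % increase over the pre-dose value, or an MED by van der Waerden X-test.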

Data set [5] is described as follows: Pharmacological animal tests, general statements on activity. Conditions: in vivo. As to the method:
After recrystallisation from 500 milliliters of methanol 18.5 grams of the (-)-isomer of Lu 13-092, D-(-)-tartrate were obtained, melting at 207°-209° C. […] The novel indanes of Formula I were tested pharmacologically in standard and reliable animal tests.

A short description of data set [6]: in vivo. Conditions: iv.
In data set [7] the test system is 3H-DA uptake in striatal synaptosomes. The data set can be described thus: 3H-DA uptake in striatal synaptosomes in vitro. The data set is classed as biochemical, rats. Conditions: rat striatal synaptosomes, 12.5 nM 3H-DA, 37° C., pH 7.4. As to the method: ^3 H-DA uptake in striatal synaptosomes in vitro
0.32 M sucrose containing 1 mM Nialamide
Millipore filters (HAWPO 2500, 0.45μ)
3,4-dihydroxyphenylethylamine[ethyl-1-^3 H(N)]=^3 H-DA spc. act. app. 15 Ci/mmol, New England Nuclear Thomas Tissue Grinder, clearance 0.004-0.006 inch.
Rats are killed by a blow to their head, exsanguinated and their brains removed. The brain is placed on a precooled glassplate, and the two corpura striata are dissected out and gently homogenized in 40 volumes of ice cold 0.32 M sucrose containing 1 mM of nialamide using a hand homogenizer with teflon pestle. The P2 -fraction (synaptosomal fraction) is obtained by centrifugation (600 g, 10 min., 25000 g, 55 min. 4° C.) and suspended in 40 volumes of a modified Krebs-Ringer-phosphate buffer, pH 7.4. To 200 μl of the synaptosomal fraction on ice are added 3700 μl modified Krebs-Ringer-phosphate buffer--containing test compounds. After a preincubation at 37° C. for 5 min. […] The incubation is terminated by filtering the samples under vacuum through Millipore filters with a wash of 5 ml buffer containing 10 μM of unlabelled DA. After solubilizing the filters in 1 ml of cellosolve the radioactivity is determined by liquid scintillation counting after the addition of 10 ml of Insta-Gel. The unspecific binding of ^3 H-DA is determined by incubating control samples on ice instead of at 37° C.
All experiments are performed in triplicate.
The mean of all control samples and ice samples are calculated. […] The IC50-values are determined as the concentrations, at which the uptake are 50 percent of the uptake in control samples-uptake in ice samples.

As to `CN1CCN([C@@H]2C[C@@H](c3ccc(F)cc3)c3ccc(F)cc32)CC1` (relative stereo) [Lu 13-092, trans-1-methyl-4-(3-(4'-fluorophenyl)-6-fluoro-1-indanyl)piperazine], the ED50 in data set [1] came to 4.2 mg/kg; in data set [2], 14.8 mg/kg; in data set [3], 81 mg/kg. For the same compound, the “Ratio catalep./Amphet.” value in data set [3] is 5.5. In addition, the “MED Grid Shock” value in data set [4] is given as 1.3. Moreover, the “neuroleptic activity” value in data set [5] is “the neuroleptic active isomer is the trans-isomer”. The same compound registered an LD50 in data set [6] of 80 mg/kg.

With `OCC(O)CN1CCN(C2CC(c3ccc(F)cc3)c3ccc(F)cc32)CC1` (single isomer, unassigned) [Lu 17-066], the ED50 in data set [1] was 1.6 mg/kg; in data set [2] it was 18 mg/kg; in data set [3], more than 160 mg/kg. For the same compound, in data set [3], the “Ratio catalep./Amphet.” value worked out at 8.9. Also, in data set [4], the “MED Grid Shock” value amounted to 2.5. Besides, the midpoint of inhibition in data set [7], the IC50, lay at 27 nM. The same compound had an LD50 in data set [6] of more than 160 mg/kg.

For the compound `CC(C)N1CCN(C2CC(c3ccc(F)cc3)c3ccc(F)cc32)CC1` (stereo not shown) [Lu 17-062, 1-Isopropyl-4-(3-(4'-fluorophenyl)-6-fluoro-1-indanyl)piperazine], the ED50 turned out to be 1.3 mg/kg in data set [1], 10 mg/kg in data set [2] and 14 mg/kg in data set [3]. Moreover, the “Ratio catalep./Amphet.” value in data set [3] was 1.4. The “MED Grid Shock” value in data set [4] turned out to be 5. Also, the “neuroleptic activity” value in data set [5] is on record as “neuroleptical active isomer”. This compound also returned an LD50 in data set [6] of 113 mg/kg.

Take `OCCCN1CCN([C@@H]2C[C@@H](c3ccc(F)cc3)c3ccc(F)cc32)CC1` (relative stereo) [Lu 14-036]: the ED50 stood at 1.6 mg/kg in data set [1], 2.3 mg/kg in data set [2] and 3.7 mg/kg in data set [3]. Moreover, the “Ratio catalep./Amphet.” value in data set [3] turned out to be 1.6. In data set [4], the “MED Grid Shock” value is recorded as 5. This compound also yielded an IC50 in data set [7] of 73 nM. This compound had an LD50 in data set [6] of 129 mg/kg.
